Where two headings read alike, the source gives them in different places. Ends that are not written are not given here.
Legend:
histamine H3 receptor = molecular target: T1, histamine H3 receptor (Rattus norvegicus, UniProt Q9QYN8); test: Inhibition of [^3 H]-N-alpha-methylhistamine binding to rat brain membranes; details: for binding to the histamine H3 -receptor (in words): discussion of Table I
T1 construct: from tissue
Description: A series of compounds were prepared and tested for their histamine H3 receptor antagonist activity. The antagonist activity of the compounds was detected by observing inhibition of (^3 H)-N-(alpha)methylhistamine activity on rat brain membranes.
The various compounds were tested for the ability to bind to the histamine H3 receptor. A binding assay in a rat brain membrane preparation, based on inhibition of binding of [^3 H]-N-alpha-methylhistamine using excess unlabeled alpha-methylhistamine to account for nonspecific binding, was developed.

Calcium = details: reference compound; cited from earlier work
Arg-Vasopressin V1 = details: reference compound; cited from earlier work
Bombesin = details: reference compound; cited from earlier work
NPY = details: reference compound; cited from earlier work
Male albino CF-1 mice = test: Behavioral effects in mice: sleep induced by (R)α-methylhistamine; format: in vivo, mouse; details: i.p.
Description: The overall strategy to show central nervous system antagonist activity was to challenge effects of the agonist (R)α-methylhistamine. Therefore, the first objective was to establish a dose response curve for behavioral effects of (R)α-methylhistamine. Male albino CF-1 mice weighing 20-30 g were used. Saline or (R)α-methylhistamine in saline was injected i.p. in a volume ≤0.4 ml. […] Animals were scored for the presence (1) or absence (0) of the behavior and the results were reported as the accumulated score for a 30 minute period (maximum score=9).
To assess the effects of antagonists, they were administered with the (R)α-methylhistamine in saline.

EGF = details: reference compound; cited from earlier work
Angiotensin = details: reference compound; cited from earlier work
ANF (rat) = details: reference compound; cited from earlier work
Substance P = details: reference compound; cited from earlier work
Benzodiazephine = details: reference compound; cited from earlier work
Serotonin 1 = details: reference compound; cited from earlier work
Serotonin 2 = details: reference compound; cited from earlier work
Substance K = details: reference compound; cited from earlier work
Potassium = details: reference compound; cited from earlier work
Somatostatin = details: reference compound; cited from earlier work
Dopamine 2 = details: reference compound; cited from earlier work
Neurotensin = details: reference compound; cited from earlier work
Quisqualate = details: reference compound; cited from earlier work
NGF = details: reference compound; cited from earlier work
Adenosine = details: reference compound; cited from earlier work
PCP = details: reference compound; cited from earlier work
[1] = molecular target: Adenylate Cyclase Forskolin; details: reference compound; cited from earlier work
NMDA = details: reference compound; cited from earlier work
VIP = details: reference compound; cited from earlier work
MK-801 = details: reference compound; cited from earlier work
[2] = ^3 HN^α -methylhistamine as radioligand, rat brain membranes, first part of Table I, read-out: IC50
[3] = ^3 HN^α -methylhistamine as radioligand, rat brain membranes, second part of Table I, read-out: IC50

T1 sequence (Q9QYN8 whole entry): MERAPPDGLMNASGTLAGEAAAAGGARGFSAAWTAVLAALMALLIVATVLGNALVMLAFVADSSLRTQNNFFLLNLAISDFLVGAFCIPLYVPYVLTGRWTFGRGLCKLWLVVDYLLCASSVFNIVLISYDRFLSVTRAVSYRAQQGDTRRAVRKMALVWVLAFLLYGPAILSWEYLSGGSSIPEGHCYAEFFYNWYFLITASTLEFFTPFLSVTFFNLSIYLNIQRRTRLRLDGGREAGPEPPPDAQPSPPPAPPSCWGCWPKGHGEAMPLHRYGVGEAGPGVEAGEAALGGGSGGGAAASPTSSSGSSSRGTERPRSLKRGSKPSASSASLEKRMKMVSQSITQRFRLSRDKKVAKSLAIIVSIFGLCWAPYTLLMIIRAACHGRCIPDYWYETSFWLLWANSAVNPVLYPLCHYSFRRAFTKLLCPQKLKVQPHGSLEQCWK

Molecule: O=C(CCC1CCCCC1)N1CCC(c2c[nH]cn2)CC1 [Compound 6]
- IC50 (histamine H3 receptor; [2]): 34 ± 1.4 nM

Molecule: COC(=O)C1=C(C)NC(C)=C(C(=O)OC)C1c1ccccc1[N+](=O)[O-] [Nifedipine]
- Ki (Calcium): 1.6 nM

Molecule: arg-Vasopressin: Reference Compound
- Ki (Arg-Vasopressin V1): 4.9 nM

Molecule: O=C(CCC(c1ccccc1)c1ccccc1)N1CCC(c2c[nH]cn2)CC1 [Compound 53]
- IC50 (histamine H3 receptor; [2]): 124 nM

Molecule: N#CN=C(Nc1ccc(-c2c[nH]cn2)cc1)NC1CCCCC1 [Compound 50]
- binding to the histamine H3 -receptor (in words) (histamine H3 receptor): ineffective at binding to the H3 -receptor

Molecule: O=C(/C=C/c1ccccc1)N1CCC(c2c[nH]cn2)CC1 [Compound 10]
- IC50 (histamine H3 receptor; [3]): 570 ± 172 nM

Molecule: O=C(C(c1ccccc1)C1CCCCC1)N1CCC(c2c[nH]cn2)CC1 (centres unmarked) [Compound 11]
- IC50 (histamine H3 receptor; [3]): 260 ± 38 nM

Molecule: O=C(CCCC1CCCCC1)N1CCC(c2c[nH]cn2)CC1 [Compound 12]
- IC50 (histamine H3 receptor; [2]): 41.4 ± 9 nM

Molecule: Tyr4-Bombesin
- Ki (Bombesin): 0.55 nM

Molecule: Neuropeptide Y: Reference Compound
- Ki (NPY): 0.5 nM

Molecule: O=C(CCCc1ccccc1)N1CCC(c2c[nH]cn2)CC1 [Compound 5]
- IC50 (histamine H3 receptor; [2]): 262 ± 9 nM

Molecule: C[C@@H](N)Cc1c[nH]cn1 [(R)α-methylhistamine]
- sleeping (Male albino CF-1 mice; 15 to 35 mg/kg, one hour after injection): dose-dependent (range of 15 to 35 mg/kg) increase in sleeping one hour after injection
- sleeping (Male albino CF-1 mice; 30 minutes after injection): evident at 30 minutes after injection

Molecule: CC(C)(C)OC(=O)N1CCC(c2c[nH]cn2)CC1 [Compound 2]
- IC50 (histamine H3 receptor): 243.5 ± 1.9 nM

Molecule: EGF: Reference Compound
- Ki (EGF): 0.24 nM

Molecule: Angiotensin II: Reference Compound
- Ki (Angiotensin): 0.2 nM

Molecule: ANP: Reference Compound
- Ki (ANF (rat)): 0.15 nM

Molecule: Substance P: Reference Compound
- Ki (Substance P): 0.08 nM

Molecule: O=C(c1ccccc1)N1CCC(c2c[nH]cn2)CC1 [Compound 13]
- IC50 (histamine H3 receptor; [2]): 151 ± 44 nM

Molecule: CNCCc1c[nH]cn1 [[^3 H]-N-alpha-methylhistamine, reference compound]
- Kd (histamine H3 receptor): 0.19 nM

Molecule: O=C1CN=C(c2ccccc2Cl)c2cc([N+](=O)[O-])ccc2N1 [Clonazepam]
- Ki (Benzodiazephine): 3.4 nM

Molecule: NCCc1c[nH]c2ccc(O)cc12 [Serotonin]
- Ki (Serotonin 1): 4.6 nM
- Ki (Serotonin 2): 531 nM

Molecule: Neurokinin A: Reference Compound
- Ki (Substance K): 2.75 nM

Molecule: Apamin: Reference Compound (CNCKAPETALCARRCQQH; ends and bridges not checked; cysteine pairing not given here; UniProt P01500 28-45, looked up)
- Ki (Potassium): 0.05 nM

Molecule: Somatostatin: Reference Compound
- Ki (Somatostatin): 0.03 nM

Molecule: O=C(CCCN1CCC2(CC1)C(=O)NCN2c1ccccc1)c1ccc(F)cc1 [Spiperone]
- Ki (Dopamine 2): 0.08 nM

Molecule: O=C(CC1CCCCC1)N1CCC(c2c[nH]cn2)CC1 [Compound 3]
- IC50 (histamine H3 receptor): 19 ± 12 nM

Molecule: O=C(CC=C(c1ccccc1)c1ccccc1)N1CCC(c2c[nH]cn2)CC1 [Compound 54]
- IC50 (histamine H3 receptor; [2]): 1000 nM

Molecule: Neurotensin
- Ki (Neurotensin): 1.23 nM

Molecule: N[C@@H](Cn1oc(=O)[nH]c1=O)C(=O)O [Quisqualic Acid]
- Ki (Quisqualate): 11.8 nM

Molecule: O=C(CC(c1ccccc1)c1ccccc1)N1CCC(c2c[nH]cn2)CC1 [Compound 52]
- IC50 (histamine H3 receptor; [2]): 93.1 nM

Molecule: NGF: Reference Compound
- Ki (NGF): 0.8 nM

Molecule: CCNC(=O)[C@H]1O[C@@H](n2cnc3c(N)ncnc32)[C@H](O)[C@@H]1O [NECA]
- Ki (Adenosine): 120 nM

Molecule: c1ccc(C2(N3CCCCC3)CCCCC2)cc1 [PCP]
- Ki (PCP): 62.3 nM

Molecule: O=C(CCc1ccccc1)N1CCC(c2c[nH]cn2)CC1 [Compound 7]
- IC50 (histamine H3 receptor; [2]): 34.1 ± 3.6 nM

Molecule: N#CN=C(NC1CCCCC1)N1CCC(c2c[nH]cn2)CC1 [Compound 48]
- binding to the histamine H3 -receptor (in words) (histamine H3 receptor): ineffective at binding to the H3 -receptor

Molecule: CNC(=S)NCCCCc1cnc[nH]1 [Burimamide, reference compound]
- IC50 (histamine H3 receptor; [2]): 156 ± 57 nM

Molecule: C=C[C@@]1(C)CC(=O)[C@]2(O)[C@@]3(C)[C@@H](O)CCC(C)(C)[C@@H]3[C@H](O)[C@H](OC(C)=O)[C@@]2(C)O1 [Forskolin]
- Ki [1]: 29.4 nM

Molecule: CN[C@H](CC(=O)O)C(=O)O [NMDA]
- Ki (NMDA): 359 nM

Molecule: VIP: Reference Compound
- Ki (VIP): 1.53 nM

Molecule: N#CN=C(Oc1ccccc1)N1CCC(c2c[nH]cn2)CC1 [Compound 47]
- IC50 (histamine H3 receptor; [2]): 231 nM
- binding to the histamine H3 -receptor (in words) (histamine H3 receptor): ineffective at binding to the H3 -receptor

Molecule: C[C@]12N[C@H](Cc3ccccc31)c1ccccc12 [MK801]
- Ki (MK-801): 4.3 nM

Source: patent US5486526A, “Histamine H3 -receptor antagonists and therapeutic uses thereof” (The University of Toledo, priority 1993, dated 1996)
